Like-named read-outs stand apart in the source and are kept apart here.
What was measured:
[1] = Hepatic microsomal stability, human; type: in vitro ADME
Method: (§1) Hepatic microsmal assays were performed with compound 5114 in human and rat (Sprague-Dawley). Protein concentrations of 0.4 (human) and 0.2 mg/mL (rat) with an NADPH regenerating cofactor system (2.6 mM NADP+, 6.6 mM glucose-6-phosphate, 0.8 U/mL glucose-6-phosphate dehydrogenase, and 6.6 mM magnesium chloride) were used. A 100 μM 20% DMSO/80% acetonitrile working stock of each of the compounds was diluted 100 fold resulting in 1 μM compound/1% final organic reaction concentrations. Time points were removed at 0 and 60 minutes. At each time point, 100 μL of the incubation suspension was added to 200 μL of acetonitrile containing internal standard (tolbutamide), followed by centrifugation at 3,220 rcf for 10 minutes. Two hundred (200) μL of the resulting supernatants were removed, dried under nitrogen and reconstituted in 100 μL of 2 mM ammonium acetate, 0.1% formic acid in 50% methanol prior to analysis by LC/MS/MS. Testosterone and dexamethasone were used as reference compounds.

[2] = Hepatic microsomal stability, rat; type: in vitro ADME, rat (Sprague-Dawley)
Method: as §1

[3] = PAMPA, 5 h, 10 μM, pH 7.4
Method: The target concentration in the assay was 10 μM, prepared by diluting (1000-fold) the 10 mM stock solutions in DMSO into PBS, pH 7.4. The final DMSO concentration was 0.1%. The 10 μM solutions were added, 300 μL, to wells in the donor plate. The receiver plate, which contained 200 μL of PBS, pH 7.4 per well, was placed in the donor plate and the assembly was incubated for 5 hours at ambient temperature. At the end of the incubation period the plates were separated and the compound concentrations in each solution were determined by LC/MS/MS. The assay was performed in triplicate.
C0 is the initial concentration in the donor well (μM)
CD(t) is the concentration in the donor well after incubation (μM)
CA(t) is the concentration in the acceptor well after incubation (μM)
VD is the volume in the donor well (0.3 mL)
VA is the volume in the acceptor well (0.2 mL)
CE is (CD(t)VD+CA(t)VA)/(VD+VA)
A is the filter area (0.3 cm2)
t is the incubation time (18,000 s).

[4] = system: different kinases; assay: Kinase activity screening by Millipore UK Ltd, percent kinase activity at 300 nM of compound (Table 31); type: biochemical
Method: Protocols for Kinase Activity Screening: Kinase screening was performed by Millipore UK Ltd. Kinase dilution buffer composition: 20 mM MOPS, 1 mM EDTA, 0.01% Brij-35, 5% Glycerol, 0.1% b-mercaptoethanol, 1 mg/mL BSA.

[5] = system: Caco-2 cells; assay: Inhibition of Caco-2 cells (MTS cell proliferation); type: cell-based; settings: for inhibition at 0.4 µM / inhibition at 0.8 µM / inhibition at 1.6 µM / inhibition at 3.2 µM / inhibition at 6.25 µM / inhibition at 12.5 µM / inhibition at 25 µM / inhibition at 50 µM / inhibition at 100 µM / IC50: Homo sapiens; for inhibition at 0.4 µM: 0.400 μM; for inhibition at 0.4 µM / inhibition at 0.8 µM / inhibition at 1.6 µM / inhibition at 3.2 µM / inhibition at 6.25 µM / inhibition at 12.5 µM / inhibition at 25 µM / inhibition at 50 µM / inhibition at 100 µM: 72 hours; for inhibition at 0.8 µM: 0.800 μM; for inhibition at 1.6 µM: 1.600 μM; for inhibition at 3.2 µM: 3.200 μM; for inhibition at 6.25 µM: 6.250 μM; for inhibition at 12.5 µM: 12.500 μM
Method: Inhibition of Caco-2 Cells Cells: Caco-2 cells, ATCC Passage 33, Mycoplasma free. Medium: DMEM Medium (GIBCO Cat #11995073) supplemented with 10% fetal bovine serum (Hyclone Cat #SH30396.03). Seeding: 3,000 cells/well (100 μL) into 96-wells plate, incubated overnight at 37° C. in a humidified, 5% CO2 atmosphere. […] Fifty microliters (50 μL) of diluted compounds were added into each well. The final concentrations of the positive control and test compounds were shown in the graphs. The cells were incubated for 72 hours after addition of the test compounds. MTS: 15 uL of MTS solution (Promega Cat #G5430) was added into each well and incubated with cells for 4 hours at 37° C. in a humidified, 5% CO2 atmosphere. Measurement: Absorbance at 490 nm was measured using MD Spectramax Plus384 spectrophotometer. The regression curves were calculated by the GraphPad Prism 5 using “log(inhibitor) vs response—variable slope”. Calculation: % of inhibition=(ODzero ctrl−OD compound)/ODzero ctrl*100.

[6] = replicate 1, read-out: % of inhibition 1
[7] = replicate 2, read-out: % of inhibition 2

With `C[C@@H]1C[C@H]2[C@@H]3CCC4=CC(=O)C=C[C@]4(C)[C@@]3(F)[C@@H](O)C[C@]2(C)[C@@]1(O)C(=O)CO` [Dexamethasone] as the molecule, how does the “% remaining after incubation, Human Microsomes” value ([1]; human, microsomes, 1 h, 1 μM) read?
The value was 85%.

And the “% remaining after incubation, Rat Microsomes” value ([2]; Sprague-Dawley, rat, microsomes, 1 h, 1 μM)?
The value was 91%.

And the “Mass Retention R” value [3]?
Its value is 9%.

Which “Percent Kinase Activity of Enzyme CK1” value [4] does the source give for `Nc1ccc2c(c1)CN(c1nccc(/C=C3\NC(=O)NC3=O)n1)CC2` [Example 64, (Z)-5-((2-(7-amino-3,4-dihydroisoquinolin-2(1H)-yl)pyrimidin-4-yl)methylene)imidazolidine-2,4-dione] here?
Its value is 81%.

What about the “Percent Kinase Activity of Enzyme CK1g2” value [4] of the same molecule?
The value was 75%.

And the “Percent Kinase Activity of Enzyme CK2” value [4]?
The value was 65%.

And the “Percent Kinase Activity of Enzyme Pim-1” value [4]?
The value was 83%.

What about the “Percent Kinase Activity of Enzyme Pim-2” value [4] of the same molecule?
Its value is 81%.

What about the “Percent Kinase Activity of Enzyme Pim-3” value [4] of the same molecule?
The value was 97%.

What does the source list for `NCC1CCN(c2nccc(/C=C3\NC(=O)NC3=O)n2)CC1` [Example 65, (Z)-5-((2-(4-(aminomethyl)piperidin-1-yl)pyrimidin-4-yl)methylene)imidazolidine-2,4-dione]?
Percent Kinase Activity of Enzyme CK1 [4]: 97%; Percent Kinase Activity of Enzyme CK1g2 [4]: 96%; Percent Kinase Activity of Enzyme CK2 [4]: 94%; Percent Kinase Activity of Enzyme Pim-1 [4]: 92%; Percent Kinase Activity of Enzyme Pim-2 [4]: 78%; Percent Kinase Activity of Enzyme Pim-3 [4]: 76%

With `Nc1cccc2c1CCN(c1nccc(/C=C3\NC(=O)NC3=O)n1)C2` [Example 66, (Z)-5-((2-(5-amino-3,4-dihydroisoquinolin-2(1H)-yl)pyrimidin-4-yl)methylene)imidazolidine-2,4-dione] as the molecule, how does the “Percent Kinase Activity of Enzyme CK1” value [4] read?
The value was 98%.

What about the “Percent Kinase Activity of Enzyme CK1g2” value [4] of the same molecule?
Its value is 77%.

And the “Percent Kinase Activity of Enzyme CK2” value [4]?
The value was 78%.

What about the “Percent Kinase Activity of Enzyme Pim-1” value [4] of the same molecule?
The value was 91%.

What about the “Percent Kinase Activity of Enzyme Pim-2” value [4] of the same molecule?
The value was 86%.

What about the “Percent Kinase Activity of Enzyme Pim-3” value [4] of the same molecule?
Its value is 96%.

With `CN(c1nccc(/C=C2\NC(=O)NC2=O)n1)[C@H]1CCCNC1` [Example 67, (S,Z)-5-((2-(methyl(piperidin-3-yl)amino)pyrimidin-4-yl)methylene)imidazolidine-2,4-dione] as the molecule, how does the “Percent Kinase Activity of Enzyme CK1” value [4] read?
The value was 104%.

And the “Percent Kinase Activity of Enzyme CK1g2” value [4]?
The value was 111%.

What about the “Percent Kinase Activity of Enzyme CK2” value [4] of the same molecule?
Its value is 94%.

And the “Percent Kinase Activity of Enzyme Pim-1” value [4]?
Its value is 98%.

What about the “Percent Kinase Activity of Enzyme Pim-2” value [4] of the same molecule?
Its value is 99%.

And the “Percent Kinase Activity of Enzyme Pim-3” value [4]?
Its value is 114%.

With `O=C1NC(=O)/C(=C/c2ccnc(N3CCC(CNCc4ccc5ccccc5n4)CC3)n2)N1` [Example 68, (Z)-5-((2-(4-(((quinolin-2-ylmethyl)amino)methyl)piperidin-1-yl)pyrimidin-4-yl)methylene)imidazolidine-2,4-dione] as the molecule, how does the “Percent Kinase Activity of Enzyme CK1” value [4] read?
The value was 97%.

And the “Percent Kinase Activity of Enzyme CK1g2” value [4]?
The value was 84%.

And the “Percent Kinase Activity of Enzyme CK2” value [4]?
The value was 109%.

And the “Percent Kinase Activity of Enzyme Pim-1” value [4]?
The value was 75%.

What about the “Percent Kinase Activity of Enzyme Pim-2” value [4] of the same molecule?
Its value is 69%.

And the “Percent Kinase Activity of Enzyme Pim-3” value [4]?
Its value is 63%.

Which “Percent Kinase Activity of Enzyme CK1” value [4] does the source give for `O=C1NC(=O)/C(=C/c2ccnc(N3CCC(CNCc4cccc(-c5ccsc5)n4)CC3)n2)N1` [Example 69, (Z)-5-((2-(4-((((6-(thiophen-3-yl)pyridin-2-yl)methyl)amino)methyl)piperidin-1-yl)pyrimidin-4-yl)methylene)imidazolidine-2,4-dione] here?
The value was 92%.

What about the “Percent Kinase Activity of Enzyme CK1g2” value [4] of the same molecule?
Its value is 76%.

What about the “Percent Kinase Activity of Enzyme CK2” value [4] of the same molecule?
The value was 106%.

And the “Percent Kinase Activity of Enzyme Pim-1” value [4]?
The value was 46%.

And the “Percent Kinase Activity of Enzyme Pim-2” value [4]?
Its value is 86%.

What about the “Percent Kinase Activity of Enzyme Pim-3” value [4] of the same molecule?
The value was 59%.

Which inhibition at 0.4 µM [5, 6] does the source give for `CNC(=O)c1cc(Oc2ccc(NC(=O)Nc3ccc(Cl)c(C(F)(F)F)c3)cc2)ccn1` [Sorafenib] here?
Its inhibition at 0.4 µM is 0.049%.

What about the inhibition at 0.4 µM [5, 7] of the same molecule?
Its inhibition at 0.4 µM is 0.315%.

What about the inhibition at 0.8 µM [5, 6] of the same molecule?
Its inhibition at 0.8 µM is 9.97%.

What about the inhibition at 0.8 µM [5, 7] of the same molecule?
Its inhibition at 0.8 µM is 6.24%.

And the inhibition at 1.6 µM [5, 6]?
Its inhibition at 1.6 µM is 14.3%.

And the inhibition at 1.6 µM [5, 7]?
Its inhibition at 1.6 µM is 11.4%.

What about the inhibition at 3.2 µM [5, 6] of the same molecule?
The inhibition at 3.2 µM was 17%.

What about the inhibition at 3.2 µM [5, 7] of the same molecule?
Its inhibition at 3.2 µM is 9.39%.

And the inhibition at 6.25 µM [5, 6]?
The inhibition at 6.25 µM was 19.9%.

And the inhibition at 6.25 µM [5, 7]?
Its inhibition at 6.25 µM is 23.5%.

And the inhibition at 12.5 µM [5, 6]?
The inhibition at 12.5 µM was 76.8%.

And the inhibition at 12.5 µM [5, 7]?
Its inhibition at 12.5 µM is 76.3%.

And the inhibition at 25 µM [5, 6]?
Its inhibition at 25 µM is 100%.

And the inhibition at 25 µM [5, 7]?
The inhibition at 25 µM was 98.5%.

And the inhibition at 50 µM [5, 6]?
Its inhibition at 50 µM is 102%.

What about the inhibition at 50 µM [5, 7] of the same molecule?
Its inhibition at 50 µM is 99%.

What about the inhibition at 100 µM [5, 6] of the same molecule?
Its inhibition at 100 µM is 84.1%.

And the inhibition at 100 µM [5, 7]?
Its inhibition at 100 µM is 96.7%.

And the IC50 ([5]; Table 18, read-out: Caco-2* 50% inhibition concentration)?
Its IC50 is 8.78 µM.

And the IC50 ([5]; Table 26, 72 hours, read-out: 50% viability conc.)?
Its IC50 is 8.77 µM.

What about the IC50 ([5]; Table 26, 72 hours, read-out: IC50) of the same molecule?
The IC50 was 9.37 µM.

What about the Maximal inhibition % ([5]; Table 26, 72 hours) of the same molecule?
The Maximal inhibition % was 100%.

For `C[C@]12CC[C@H]3[C@@H](CCC4=CC(=O)CC[C@@]43C)[C@@H]1CC[C@@H]2O` [Testosterone], which “% remaining after incubation, Human Microsomes” value ([1]; 1 μM compound, 0.4 mg/mL protein, NADPH regenerating system, 60 minutes) is on record?
The value was 42%.

What about the “% remaining after incubation, Rat Microsomes” value ([2]; 1 μM compound, 0.2 mg/mL protein, NADPH regenerating system, 60 minutes) of the same molecule?
Its value is 0.6%.

From patent publication US9073903B2, “Imidazole-2,4-dione inhibitors of casein kinase 1” (Jasco Pharmaceuticals, LLC, priority 2010, dated 2015)
